Measurements taken from patent publication US12552783B2, “Modulators of proteolysis and associated methods of use” (Arvinas Operations, Inc., priority 2018, dated 2026).

Biological target: KRas (Homo sapiens, UniProt P01116, G12C)
Experiment: KRas degradation in NCI-H2030 cells by Western blot, normalized to GAPDH (data of Table 14)
Assay type: cell-based
Set-up: host or cells: NCI-H2030
Conditions: for Percent Degradation at Indicated Concentration (μM): H2030; for Dmax: NCI-H2030
Description: Cell Lines, Antibodies, and Reagents. NCI-H2030 (CRL-5914) and SW1573 (CRL-2170) cells were purchased from ATCC. Both cell lines are homozygous for the G12C mutation in KRas. NCI-H2030 cells were cultured in RPMI-1640 medium containing 1% penicillin-streptomycin and 10% fetal bovine serum (FBS). SW1573 cells were cultured in DMEM containing 1% penicillin-streptomycin and 10% FBS. The KRas detection antibody (Cat. No. LS-C175665) was purchased from LifeSpan Biosciences and was used at a dilution of 1:2000. GAPDH was detected using an antibody purchased from Cell Signaling Technology (Cat. No. 5174) and was diluted 1:3000. Secondary anti-mouse and anti-rabbit detection antibodies were purchased from Cell Signaling Technology (Cat. Nos. 7076 and 7074, respectively).
Compound Treatment and Western Blotting of the Data of Table 14. Either NCI-H2030 or SW1573 cells were plated in 12-well plates and allowed to adhere overnight at 37° C. in an incubator containing 5% CO2. The following day, the medium was replaced with the appropriate medium lacking FBS to induce starvation. Cells were returned to the incubator for an additional 24 hours following media exchange. […] Cells were treated with VHL-based compounds for 24 hours and all other compounds for 72 hours. Following treatment, cells were lysed in RIPA buffer (Thermo Fisher Cat. No. 89900) containing phosphatase (Thermo Fisher Cat. No. 1861277) and protease (Thermo Fisher Cat. No. 78429) inhibitor cocktails. Lysates were cleared at 13,000 rpm for 15 minutes and supernatants were assayed for total protein concentration using the Pierce BCA assay system (Thermo Fisher Cat. No. 23225). For each sample, 10 μg total protein was resolved on a 12% Bis-Tris gel and then transferred to a nitrocellulose membrane. After blocking in 3% BSA in TBST (Tris-buffered Saline with 0.1% Tween-20) for 1 hour at room temperature, membranes were probed with the primary antibody (LS Bio Cat. No. LS-C175665) overnight at 4° C. After incubation with the secondary antibody, the following day membranes were visualized using the SuperSignal™ West Femto substrate (Thermo Fisher Cat. No. 34095). The KRas signal in each lane was normalized to GAPDH and percent degradation was either estimated as less than 25% by visual inspection (C in Table 13) or quantitated relative to the DMSO control lane using BIO-RAD Image Lab 5.2.1, and all data was plotted using GraphPad PRISM 6.07.
DC50 is the half-maximal degradation concentration—i.e., the concentration at which 50% degradation is observed. DMax is the maximum degradation efficacy is achieved—i.e., the maximal degradation observed) degradation data.

Compound	Percent Degradation at Indicated Concentration (μM) (0.3 μM)	Percent Degradation at Indicated Concentration (μM) (1 μM)	Percent Degradation at Indicated Concentration (μM) (3 μM)	Dmax [%]
C=CC(=O)N1CCN(c2nc(NCCC(=O)N(C)CCOc3cc(-c4scnc4C)ccc3CNC(=O)[C@@H]3C[C@@H](O)CN3C(=O)[C@H](c3cc(C)no3)C(C)C)nc3c(F)c(-c4c(O)cccc4F)c(Cl)cc23)CC1 (atropisomer, axis not shown) [compound 127, (25,4R)-N-(2-(2-(3-(((S)-4-(4-acryloylpiperazin-1-yl)-6-chloro-8-fluoro-7-(2-fluoro-6-hydroxyphenyl)quinazolin-2-yl)amino)-N-methylpropanamido)ethoxy)-4-(4-methylthiazol-5-yl)benzyl)-4-hydroxy-1-((S)-3-methyl-2-(3-methylisoxazol-5-yl)butanoyl)pyrrolidine-2-carboxamide]	C (Percent Degradation: C ≤ 35)	C (Percent Degradation: C ≤ 35)	C (Percent Degradation: C ≤ 35)	≤ 35
C=CC(=O)N1CCN(c2nc(NCCC(=O)N(C)CCOCCOc3cc(-c4scnc4C)ccc3CNC(=O)[C@@H]3C[C@@H](O)CN3C(=O)[C@@H](c3cc(C)no3)C(C)C)nc3c(F)c(-c4c(O)cccc4F)c(Cl)cc23)CC1 (atropisomer, axis not shown) [compound 128, (25,4R)-N-(2-(2-(2-(3-(((S)-4-(4-acryloylpiperazin-1-yl)-6-chloro-8-fluoro-7-(2-fluoro-6-hydroxyphenyl)quinazolin-2-yl)amino)-N-methylpropanamido)ethoxy)ethoxy)-4-(4-methylthiazol-5-yl)benzyl)-4-hydroxy-1-((R)-3-methyl-2-(3-methylisoxazol-5-yl)butanoyl)pyrrolidine-2-carboxamide]	C (Percent Degradation: C ≤ 35)	C (Percent Degradation: C ≤ 35)	C (Percent Degradation: C ≤ 35)	≤ 35
C=CC(=O)N1CCN(c2nc(NCCC(=O)N(C)CCOCCOCCOc3cc(-c4scnc4C)ccc3CNC(=O)[C@@H]3C[C@@H](O)CN3C(=O)[C@H](c3cc(C)no3)C(C)C)nc3c(F)c(-c4c(O)cccc4F)c(Cl)cc23)CC1 (atropisomer, axis not shown) [compound 130, (25,4R)-N-(2-(2-(2-(2-(3-(((S)-4-(4-acryloylpiperazin-1-yl)-6-chloro-8-fluoro-7-(2-fluoro-6-hydroxyphenyl)quinazolin-2-yl)amino)-N-methylpropanamido)ethoxy)ethoxy)ethoxy)-4-(4-methylthiazol-5-yl)benzyl)-4-hydroxy-1-((S)-3-methyl-2-(3-methylisoxazol-5-yl)butanoyl)pyrrolidine-2-carboxamide]	C (Percent Degradation: C ≤ 35)	C (Percent Degradation: C ≤ 35)	C (Percent Degradation: C ≤ 35)	≤ 35
C=CC(=O)N1CCN(c2nc(NCCC(=O)N(C)CCOCCOCCOCCOc3cc(-c4scnc4C)ccc3CNC(=O)[C@@H]3C[C@@H](O)CN3C(=O)[C@H](c3cc(C)no3)C(C)C)nc3c(F)c(-c4c(O)cccc4F)c(Cl)cc23)CC1 (atropisomer, axis not shown) [compound 131, (2S,4R)-N-(2-((15-(((S)-4-(4-acryloylpiperazin-1-yl)-6-chloro-8-fluoro-7-(2-fluoro-6-hydroxyphenyl)quinazolin-2-yl)amino)-12-methyl-13-oxo-3,6,9-trioxa-12-azapentadecyl)oxy)-4-(4-methylthiazol-5-yl)benzyl)-4-hydroxy-1-((S)-3-methyl-2-(3-methylisoxazol-5-yl)butanoyl)pyrrolidine-2-carboxamide]	C (Percent Degradation: C ≤ 35)	C (Percent Degradation: C ≤ 35)	C (Percent Degradation: C ≤ 35)	≤ 35
C=CC(=O)N1CCN(c2nc(NCCC(=O)N(C)CCOCCOCCOCCOCCOc3cc(-c4scnc4C)ccc3CNC(=O)[C@@H]3C[C@@H](O)CN3C(=O)[C@H](c3cc(C)no3)C(C)C)nc3c(F)c(-c4c(O)cccc4F)c(Cl)cc23)CC1 (atropisomer, axis not shown) [compound 132, (25,4R)-N-(2-((18-(((S)-4-(4-acryloylpiperazin-1-yl)-6-chloro-8-fluoro-7-(2-fluoro-6-hydroxyphenyl)quinazolin-2-yl)amino)-15-methyl-16-oxo-3,6,9,12-tetraoxa-15-azaoctadecyl)oxy)-4-(4-methylthiazol-5-yl)benzyl)-4-hydroxy-1-((S)-3-methyl-2-(3-methylisoxazol-5-yl)butanoyl)pyrrolidine-2-carboxamide]	C (Percent Degradation: C ≤ 35)	C (Percent Degradation: C ≤ 35)	C (Percent Degradation: C ≤ 35)	≤ 35
C=CC(=O)N1CCN(c2nc(NCCC(=O)N(C)CCOCC(=O)N[C@H](C(=O)N3C[C@H](O)C[C@H]3C(=O)N[C@@H](C)c3ccc(-c4scnc4C)cc3)C(C)(C)C)nc3c(F)c(-c4c(O)cccc4F)c(Cl)cc23)CC1 (atropisomer, axis not shown) [compound 205, (2S,4R)-1-((S)-2-(2-(2-(3-(((S)-4-(4-acryloylpiperazin-1-yl)-6-chloro-8-fluoro-7-(2-fluoro-6-hydroxyphenyl)quinazolin-2-yl)amino)-N-methylpropanamido)ethoxy)acetamido)-3,3-dimethylbutanoyl)-4-hydroxy-N-((S)-1-(4-(4-methylthiazol-5-yl)phenyl)ethyl)pyrrolidine-2-carboxamide]			C (Percent Degradation: C ≤ 35)	
C=CC(=O)N1CCN(c2nc(NCCC(=O)N(C)CCOCC(=O)N[C@H](C(=O)N3C[C@H](O)C[C@H]3C(=O)N[C@@H](C)c3ccc(-c4scnc4C)cc3)C(C)(C)C)nc3c(F)c(-c4c(O)cccc4F)c(Cl)cc23)CC1 (atropisomer, axis not shown) [compound 206, (2S,4R)-1-((S)-2-(2-(2-(3-(((R)-4-(4-acryloylpiperazin-1-yl)-6-chloro-8-fluoro-7-(2-fluoro-6-hydroxyphenyl)quinazolin-2-yl)amino)-N-methylpropanamido)ethoxy)acetamido)-3,3-dimethylbutanoyl)-4-hydroxy-N-((S)-1-(4-(4-methylthiazol-5-yl)phenyl)ethyl)pyrrolidine-2-carboxamide]	C (Percent Degradation: C ≤ 35)	C (Percent Degradation: C ≤ 35)	C (Percent Degradation: C ≤ 35)	≤ 35
C=CC(=O)N1CCN(c2nc(NCCC(=O)N(C)CCOCCOCC(=O)N[C@H](C(=O)N3C[C@H](O)C[C@H]3C(=O)N[C@@H](C)c3ccc(-c4scnc4C)cc3)C(C)(C)C)nc3c(F)c(-c4c(O)cccc4F)c(Cl)cc23)CC1 (atropisomer, axis not shown) [compound 207, (2S,4R)-1-((S)-15-(((S)-4-(4-acryloylpiperazin-1-yl)-6-chloro-8-fluoro-7-(2-fluoro-6-hydroxyphenyl)quinazolin-2-yl)amino)-2-(tert-butyl)-12-methyl-4,13-dioxo-6,9-dioxa-3,12-diazapentadecanoyl)-4-hydroxy-N-((S)-1-(4-(4-methylthiazol-5-yl)phenyl)ethyl)pyrrolidine-2-carboxamide]			C (Percent Degradation: C ≤ 35)	
C=CC(=O)N1CCN(c2nc(NCCC(=O)N(C)CCOCCOCC(=O)N[C@H](C(=O)N3C[C@H](O)C[C@H]3C(=O)N[C@@H](C)c3ccc(-c4scnc4C)cc3)C(C)(C)C)nc3c(F)c(-c4c(O)cccc4F)c(Cl)cc23)CC1 (atropisomer, axis not shown) [compound 208, (2S,4R)-1-((S)-15-(((R)-4-(4-acryloylpiperazin-1-yl)-6-chloro-8-fluoro-7-(2-fluoro-6-hydroxyphenyl)quinazolin-2-yl)amino)-2-(tert-butyl)-12-methyl-4,13-dioxo-6,9-dioxa-3,12-diazapentadecanoyl)-4-hydroxy-N-((S)-1-(4-(4-methylthiazol-5-yl)phenyl)ethyl)pyrrolidine-2-carboxamide]	C (Percent Degradation: C ≤ 35)	C (Percent Degradation: C ≤ 35)	C (Percent Degradation: C ≤ 35)	≤ 35
